For 49 compounds, IC50 results are on record in patent US20100204219A1, “AROMATIC 1,4-DI-CARBOXYLAMIDES AND THEIR USE” (priority 2006, published 2010).

SMILES strings stand for the structures.

In this assay the target is T1, βCat-BCL9 (beta-Catenin/BCL9-BCL9L interaction) (Homo sapiens, UniProt P35222).
T1 sequence (P35222 1-781): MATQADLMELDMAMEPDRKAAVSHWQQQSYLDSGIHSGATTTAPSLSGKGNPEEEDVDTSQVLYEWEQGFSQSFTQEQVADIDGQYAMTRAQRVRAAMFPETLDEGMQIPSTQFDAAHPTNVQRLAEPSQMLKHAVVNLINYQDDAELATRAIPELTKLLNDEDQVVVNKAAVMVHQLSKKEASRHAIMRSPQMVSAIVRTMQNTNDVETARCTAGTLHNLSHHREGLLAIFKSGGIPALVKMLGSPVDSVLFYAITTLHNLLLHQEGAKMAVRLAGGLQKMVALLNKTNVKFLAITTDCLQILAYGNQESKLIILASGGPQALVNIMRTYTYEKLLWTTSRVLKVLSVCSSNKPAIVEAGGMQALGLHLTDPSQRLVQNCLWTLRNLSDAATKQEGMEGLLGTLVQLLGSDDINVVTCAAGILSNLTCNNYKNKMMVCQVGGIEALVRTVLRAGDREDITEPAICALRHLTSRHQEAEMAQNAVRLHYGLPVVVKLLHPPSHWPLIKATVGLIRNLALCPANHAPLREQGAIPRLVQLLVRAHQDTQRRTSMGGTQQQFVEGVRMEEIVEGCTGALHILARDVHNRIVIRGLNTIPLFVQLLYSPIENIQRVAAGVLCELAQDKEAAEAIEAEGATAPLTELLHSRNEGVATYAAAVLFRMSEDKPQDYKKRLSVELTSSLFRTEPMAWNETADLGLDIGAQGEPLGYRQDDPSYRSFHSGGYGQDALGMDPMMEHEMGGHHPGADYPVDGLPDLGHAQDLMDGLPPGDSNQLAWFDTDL
Nature of the assay: ELISA based protein-protein interaction assay, βCat-BCL9. The format is binding. As to conditions: Example 1. The text has this:
cDNAs including the binding domains of Lgs and beta-Catenin were fused down-stream of glutathione-S-transferase (GST) cDNA in pGEX-4T inducible bacterial expression vector (Pharmacia). Similar recombinant DNA constructs were generated in the pET-32a(+) vector (Novagen) for expression of fusion protein containing the Thioredoxine-6His tag at their N-terminus. Fusion proteins were produced in BL21 bacteria (e.g. Stratagene) following manufacturer's recommendation.
To isolate the produced fusions protein, bacteria were ground in aluminum oxide (Sigma, A2039) and the resulting powder extracted in lysis buffer (140 mM NaCl, 10 mM Na2HPO4, 1.8 mM KH2PO4, 2.7 mM KCl, 1 mM EDTA, 1% Triton-X-100, 1 mM DTT and protease inhibitors) under rotation for 30 minutes. Supernatants were cleared by centrifugation then filtered on a 0.45 μm membrane before protein purification. For GST tagged protein, lysate were processed on glutathione agarose beads following manufacturer's recommendation (Amersham Pharmacia) and purified proteins eluted in 50 mM Tris-Cl, 10 mM reduced glutathione pH8.0. For thioredoxine-6His fusions, tagged proteins were purified from the lysate on a nickel chelating column (e.g. Hitrap chelating, G.E. Healthcare) using an HPLC system (e.g. Akta Prime, G.E. Healthcare) and eluted under increasing concentration of imidazole. The purified proteins solution was dialyzed against PBS before use. The quality of the preparations was checked by SDS-gel electrophoresis by standard methods well known by persons skilled in the art.
Compound preparation: Compounds can be prepared as 25 mM stock in DMSO and diluted in DMSO to reach final test concentrations of up to 100 μM. Final DMSO concentration in the assay is 5%.
100 μl of GST fusion protein (e.g. GST-βCatenin) diluted to the appropriate concentration in phosphate buffer saline are added per well to a 96 well plate with high protein binding capacity (e.g. Nunc Maxisorp) and placed at 4° C. overnight. The following day the liquid in the wells is discarded and 150 μl 3% bovine serum albumin (BSA) in PBS are added to each well and incubated at room temperature for 2 hours under moderate shaking. This solution is then discarded and each well washed twice with 200 μl PBS. After carefully discarding the second wash, a mixture of 5 μl compound dilution and 95 μl 6His fusion protein (e.g. 6His-Bcl9) diluted to the appropriate concentration in PBS is added to each well. The plate is then incubated for 1 hour at room temperature under moderate shaking. This protein solution is then discarded and the wells washed 3 times with 200 μl 0.1% Tween-20 solution in PBS. After carefully discarding the final wash, 100 μl of anti 6His antibody conjugated to the horse-radish peroxidase (e.g. Roche antibody 11965085001) at the appropriate dilution in 1% BSA in PBS is added to the wells and the plate incubated for 1 hour at room temperature under moderate shaking. This solution is then discarded and the wells washed 3 times with 200 μl 0.1% Tween-20 solution in PBS. After carefully discarding the final wash, 100 μl of HRP substrate […] (TMB) in solution (e.g. Sigma T0440) is added to the wells and the plate incubated up to 30 minutes in the dark at room temperature. The reaction is stopped by addition of 100 μl of 2N HCl to each well and the optical density is measured at 450 nm and 630 nm.
`CCN(CC)c1ccc(NC(=O)c2ccc(C(=O)Nc3ccc(N(CC)CC)cc3)nc2)cc1` [TGC0011281] came in with a half-inhibitory concentration (IC50) above 100 µM.

In the case of `COc1ccc(OC)c(CCNC(=O)c2ccc(C(=O)NCCc3cc(OC)ccc3OC)nc2)c1` [TGC0011457], the 50% inhibitory concentration (IC50) is above 100 µM.

With `O=C(Nc1ccc(-c2cnc(-c3ccc(NC(=O)c4ccco4)cc3)nc2)cc1)c1ccco1` [TGC0011531], the IC50 is above 10 µM.

With `O=C(Nc1ccc2c(c1)OCO2)c1ccc(C(=O)Nc2ccc3c(c2)OCO3)nc1` [TGC0011431], the half-inhibitory concentration (IC50) was above 50 µM.

The compound `O=C(NCc1ccccc1)c1ccc(C(=O)NCc2ccccc2)nc1` [TGC0011284] registered an IC50 above 100 µM.

`O=C(c1ccc(C(=O)N2CCOCC2)nc1)N1CCOCC1` [TGC0011426] gave an IC50 above 50 µM.

`CC(C)(C)C1CCc2c(sc(NC(=O)c3ccc(C(=O)Nc4sc5c(c4C#N)CCC(C(C)(C)C)C5)nc3)c2C#N)C1` (stereo not shown) [TGC0011343] came in with a half-maximal inhibitory concentration (IC50) above 100 µM.

As for `COc1ccc(Cl)cc1NC(=O)c1ccc(C(=O)Nc2cc(Cl)ccc2OC)nc1` [TGC0011282], the 50% inhibitory concentration (IC50) is above 100 µM.

On to `CC(C)NC(=O)c1ccc(C(=O)NC(C)C)nc1` [TGC0011283], for which the IC50 is above 100 µM.

For the compound `CCCCc1ccc(NC(=O)c2ccc(C(=O)Nc3ccc(CCCC)cc3)nc2)cc1` [TGC0011433], the IC50 is above 50 µM.

`COc1cccc(CCNC(=O)c2ccc(C(=O)NCCc3cccc(OC)c3)nc2)c1` [TGC0011446] returned an IC50 above 10 µM.

`COc1cc(C(=O)Nc2ccncc2)c(OC)cc1C(=O)Nc1ccncc1` [TGC0012291] gave an IC50 above 50 µM.

In the case of `Cc1cc(NC(=O)c2ccc(C(=O)Nc3cc(C)on3)nc2)no1` [TG00011289], the half-maximal inhibitory concentration (IC50) is above 50 µM.

The compound `O=C(Nc1ccc(-c2cnc(-c3ccc(NC(=O)C(F)(F)F)cc3)nc2)cc1)C(F)(F)F` [TGC0011526] had an IC50 above 100 µM.

`CC(=O)c1cccc(NC(=O)c2ccc(C(=O)Nc3cccc(C(C)=O)c3)nc2)c1` [TGC0011338] returned a concentration for half-maximal inhibition (IC50) above 10 µM.

`N#Cc1cccc(NC(=O)c2ccc(C(=O)Nc3cccc(C#N)c3)cc2)c1` [TGC0012301] came in with an IC50 above 50 µM.

Regarding `O=C(NCCC1=CCCCC1)c1ccc(C(=O)NCCC2=CCCCC2)nc1` [TGC0011435], the half-inhibitory concentration (IC50) is above 50 µM.

`COc1ccc(CCNC(=O)c2cnc(C(=O)NCCc3ccc(OC)c(OC)c3)cn2)cc1OC` [TGC0011592] yielded a half-maximal inhibitory concentration (IC50) above 10 µM.

The compound `O=C(NCc1ccc(F)cc1)c1ccc(C(=O)NCc2ccc(F)cc2)nc1` [TGC0011337] showed a half-maximal inhibitory concentration (IC50) above 10 µM.

Turning to `CC(C)(C)C(=O)Nc1ccc(-c2cnc(-c3ccc(NC(=O)C(C)(C)C)cc3)nc2)cc1` [TGC0011525], the IC50 was above 10 µM.

In turn, `O=C(NCCc1ccc2c(c1)OCO2)c1ccc(C(=O)NCCc2ccc3c(c2)OCO3)nc1` [TGC0011448] showed an IC50 above 10 µM.

`O=C(NCC1CCCO1)c1ccc(C(=O)NCC2CCCO2)nc1` (stereo not shown) [TGC0011424] registered a half-inhibitory concentration (IC50) above 50 µM.

With `CC(=O)Nc1ccc(NC(=O)c2ccc(C(=O)Nc3ccc(NC(C)=O)cc3)cc2)cc1` [TGC0012292], the IC50 was above 50 µM.

Take `CC(CCc1ccccc1)NC(=O)c1ccc(C(=O)NC(C)CCc2ccccc2)nc1` (stereo not shown) [TGC0011436]: the IC50 is above 10 µM.

In turn, `O=C(NCCc1ccc(F)cc1)c1ccc(C(=O)NCCc2ccc(F)cc2)nc1` [TGC0011447] had an IC50 above 50 µM.

Compound `COc1cc(-c2ccc(NC(=O)c3cc(-c4ccc(C)o4)nc4ccccc34)c(OC)c2)ccc1NC(=O)c1cc(-c2ccc(C)o2)nc2ccccc12` [TGC0000161] came in with an IC50 above 50 µM.

Take `CC(C)(C)C(=O)Nc1cccc(C(=O)Nc2ccc(-c3cnc(-c4ccc(NC(=O)c5cccc(NC(=O)C(C)(C)C)c5)cc4)nc3)cc2)c1` [TGC0011527]: the concentration for half-maximal inhibition (IC50) is above 10 µM.

As to `CC(C)(C)C(=O)Nc1ccc(C(=O)Nc2ccc(-c3cnc(-c4ccc(NC(=O)c5ccc(NC(=O)C(C)(C)C)cc5)cc4)nc3)cc2)cc1` [TGC0011534], the half-maximal inhibitory concentration (IC50) was above 100 µM.

`N#Cc1ccccc1NC(=O)c1ccc(C(=O)Nc2ccccc2C#N)cc1` [TGC0012300]: the IC50 is above 10 µM.

For `O=C(NCCc1cccc(Cl)c1)c1ccc(C(=O)NCCc2cccc(Cl)c2)nc1` [TGC0011340], the IC50 is above 20 µM.

For `O=C(Nc1ccccc1)c1ccc(C(=O)Nc2ccccc2)nc1` [TGC0011286], the IC50 is above 100 µM.

In turn, `COc1ccccc1CCNC(=O)c1ccc(C(=O)NCCc2ccccc2OC)nc1` [TGC0011445] displayed an IC50 above 10 µM.

For the compound `COc1ccc(NC(=O)c2ccc(C(=O)Nc3ccc(NC(C)=O)cc3)cn2)cc1` [TGC0012409], half-maximal inhibition (IC50) was put at 5 µM.

On to `O=C(NCCc1cccc(C(F)(F)F)c1)c1ccc(C(=O)NCCc2cccc(C(F)(F)F)c2)nc1` [TGC0011452], for which the IC50 was above 10 µM.

Regarding `O=C(Nc1cccnc1O)c1ccc(C(=O)Nc2cccnc2O)nc1` [TGC0012261], the half-maximal inhibitory concentration (IC50) is above 100 µM.

`Cc1ccccc1C(=O)Nc1ccc(-c2cnc(-c3ccc(NC(=O)c4ccccc4C)cc3)nc2)cc1` [TGC0011529] gave a 50% inhibitory concentration (IC50) above 100 µM.

`O=C(NCc1ccc(Cl)cc1)c1ccc(C(=O)NCc2ccc(Cl)cc2)nc1` [TGC0011339] had an IC50 above 10 µM.

Compound `O=C(Nc1ccc(-c2cnc(-c3ccc(NC(=O)c4ccccc4Cl)cc3)nc2)cc1)c1ccccc1Cl` [TGC0011530] gave an IC50 above 10 µM.

For `CC(=O)Nc1ccc(-c2cnc(-c3ccc(NC(C)=O)cc3)nc2)cc1` [TGC0011524], the IC50 was above 100 µM.

Consider `COc1cccc(CCNC(=O)c2ccc(C(=O)NCCc3cccc(OC)c3OC)nc2)c1OC` [TGC0011456], for which the 50% inhibitory concentration (IC50) is above 100 µM.

Take `O=C(c1ccc(C(=O)N2CCCc3ccccc32)nc1)N1CCCc2ccccc21` [TGC0011425]: the concentration for half-maximal inhibition (IC50) was above 25 µM.

The compound `Cc1cc(I)ccc1NC(=O)c1ccc(C(=O)Nc2ccc(I)cc2C)nc1` [TGC0011341] came in with an IC50 above 10 µM.

For `O=C(NCCc1ccccc1OC(F)(F)F)c1ccc(C(=O)NCCc2ccccc2OC(F)(F)F)nc1` [TGC0011454], the IC50 is above 100 µM.

As for `O=C(O)c1cccc(NC(=O)c2ccc(C(=O)Nc3cccc(C(=O)O)c3)cc2)c1` [TGC0012297], the IC50 was above 100 µM.

`O=C(c1ccc(C(=O)N2CCC(Cc3ccccc3)CC2)nc1)N1CCC(Cc2ccccc2)CC1` [TGC0011429] gave an IC50 above 25 µM.

Compound `O=C(Nc1ccc(-c2cnc(-c3ccc(NC(=O)c4ccc(Br)cc4)cc3)nc2)cc1)c1ccc(Br)cc1` [TGC0011533] came in with an IC50 above 100 µM.

For the compound `O=C(NCCc1ccccn1)c1ccc(C(=O)NCCc2ccccn2)nc1` [TGC0011455], the half-inhibitory concentration (IC50) was above 100 µM.

With `COc1ccc(CCNC(=O)c2ccc(C(=O)NCCc3ccc(OC)c(Cl)c3)nc2)cc1Cl` [TGC0011593], the concentration for half-maximal inhibition (IC50) was above 100 µM.

Compound `O=C(COc1ccc(Br)cc1)Nc1ccc(-c2cnc(-c3ccc(NC(=O)COc4ccc(Br)cc4)cc3)nc2)cc1` [TGC0011565] had an IC50 above 100 µM.

As a reminder, the IC50 is the concentration at which inhibition is half-maximal. Read a high IC50 as weaker potency.
